The text below walks through data of ChEMBL document CHEMBL5608246, “Membrane-Targeting Amphiphilic Honokiol Derivatives Containing an Oxazole Moiety as Potential Antibacterials against Methicillin-Resistant Staphylococcus aureus” (J Med Chem, 2024).

By MIC is commonly meant the least concentration at which growth counts as inhibited. Lower therefore signals a more susceptible organism. For orientation: HC50 means the concentration that lyses half of the red blood cells. A higher HC50 goes with weaker haemolysis.

The test system of data set [1] is Staphylococcus aureus. Description: Antibacterial activity against Staphylococcus aureus ATCC 29213 incubated for 16 to 18 hrs by broth dilution method. The class given is functional. The following applies: time 16-18 hrs.
Data set [2] concerns Staphylococcus aureus. Briefly: Antibacterial activity against methicillin resistant Staphylococcus aureus N315 incubated for 16 to 18 hrs by broth dilution method. The class given is functional. The following applies: time 16-18 hrs. In general terms: Dilution methods test growth across graded concentrations, often in twofold steps.
For data set [3], the system named is Staphylococcus aureus. Briefly: Antibacterial activity against methicillin resistant Staphylococcus aureus M11 incubated for 16 to 18 hrs by broth dilution method. Type of data set: functional. The following applies: time 16-18 hrs.
The test system of data set [4] is Staphylococcus aureus. Description: Antibacterial activity against methicillin resistant Staphylococcus aureus M12 incubated for 16 to 18 hrs by broth dilution method. Type of data set: functional. The conditions noted are these: time 16-18 hrs.
Data set [5] has as its system Staphylococcus aureus. Briefly: Antibacterial activity against methicillin resistant Staphylococcus aureus M13 incubated for 16 to 18 hrs by broth dilution method. The class given is functional. The following applies: time 16-18 hrs.
The test system of data set [6] is Staphylococcus aureus. Briefly: Antibacterial activity against methicillin resistant Staphylococcus aureus M14 incubated for 16 to 18 hrs by broth dilution method. The following applies: time 16-18 hrs. Type of data set: functional.
In data set [7] the test system is Staphylococcus aureus. Briefly: Antibacterial activity against methicillin resistant Staphylococcus aureus M16 incubated for 16 to 18 hrs by broth dilution method. Type of data set: functional. The following applies: time 16-18 hrs.
Data set [8] deals with Staphylococcus aureus. Description: Antibacterial activity against methicillin resistant Staphylococcus aureus M17 incubated for 16 to 18 hrs by broth dilution method. The class given is functional. The conditions noted are these: time 16-18 hrs.
Data set [9] concerns Staphylococcus aureus. Description: Antibacterial activity against methicillin resistant Staphylococcus aureus M20 incubated for 16 to 18 hrs by broth dilution method. Type of data set: functional. The conditions noted are these: time 16-18 hrs.
Data set [10] concerns Staphylococcus aureus. Description: Antibacterial activity against methicillin resistant Staphylococcus aureus M21 incubated for 16 to 18 hrs by broth dilution method. Type of data set: functional. The following applies: time 16-18 hrs.
Data set [11] concerns Staphylococcus aureus. Description: Antibacterial activity against methicillin resistant Staphylococcus aureus M22 incubated for 16 to 18 hrs by broth dilution method. Type of data set: functional. The following applies: time 16-18 hrs.
Data set [12] concerns Staphylococcus aureus. Description: Antibacterial activity against methicillin resistant Staphylococcus aureus M23 incubated for 16 to 18 hrs by broth dilution method. The class given is functional. The conditions noted are these: time 16-18 hrs.
In data set [13] the test system is Escherichia coli. Description: Antibacterial activity against Escherichia coli ATCC 25922 incubated for 16 to 18 hrs by broth dilution method. Type of data set: functional. The conditions noted are these: time 16-18 hrs.
Data set [14] in a line: Hemolytic activity in sheep RBC incubated for 1 hr. Type of data set: toxicity, cell-based, Ovis aries, Erythrocyte. The conditions noted are these: sheep red blood cells (erythrocytes).
Data set [15] in a line: Selectivity index, ratio of HC50 for sheep RBC to MIC for Staphylococcus aureus ATCC 29213. The class given is toxicity. The conditions noted are these: sheep red blood cells, read-out: Selectivity Index.

In the case of `C=CCc1cc(-c2ccc(OCCC[N+](C)(C)CC(=O)NCCCC)c(CC=C)c2)c2oc(-c3ccc(F)c(Br)c3)nc2c1.[Br-]`, the MIC in [1] was found to be 128 µg/mL; in data set [2], 128 µg/mL; in data set [3] it was 8 µg/mL; in [4] it was 16 µg/mL; in [5] it was 8 µg/mL; in data set [6], 8 µg/mL. The MIC in data set [7] came out at 16 µg/mL; in [8], 16 µg/mL; in data set [9] it was 8 µg/mL; in data set [10], 8 µg/mL; in data set [11] it was 32 µg/mL; in [12] it was 16 µg/mL. For the same compound, in data set [13], the minimal inhibitory concentration (MIC) came out at 128 µg/mL. Moreover, the HC50 at 1 h in data set [14] turned out to be 48.5 µg/mL. Also, the selectivity ratio in [15] was found to be 0.4.

`C=CCc1cc(-c2ccc(OCCC[N+](C)(C)CC(=O)NCCCC)c(CC=C)c2)c2oc(-c3ccc(F)cc3)nc2c1.[Br-]`: the MIC in [1] turned out to be 32 µg/mL; in data set [2] it was 16 µg/mL; in [3], 16 µg/mL; in data set [4], 16 µg/mL; in data set [5], 8 µg/mL; in data set [6], 8 µg/mL. Moreover, the MIC in data set [7], in data set [8], in data set [9], in data set [10], in data set [11] and in [12] was 8 µg/mL throughout. Moreover, the MIC in data set [13] is greater than 128 µg/mL. In addition, the HC50 at 1 h in data set [14] is greater than 320 µg/mL. For the same compound, in data set [15], the selectivity ratio was greater than 10.

Consider `C=CCc1cc(-c2ccc(OCCC[N+](C)(C)CC(=O)NCCCC)c(CC=C)c2)c2oc(-c3cccc(Br)c3)nc2c1.[Br-]`, for which the MIC in data set [1] came out at 32 µg/mL; in [2], 64 µg/mL; in data set [3] it was 8 µg/mL; in data set [4] it was 8 µg/mL; in [5] it was 8 µg/mL; in data set [6], 8 µg/mL. The MIC in [7], in [8], in data set [9], in data set [10], in [11] and in [12] was 8 µg/mL each time. The minimum inhibitory concentration (MIC) in data set [13] is greater than 128 µg/mL. Also, in data set [14], the HC50 at 1 h is greater than 320 µg/mL. The selectivity ratio in data set [15] is greater than 10.

For the compound `C=CCc1cc(-c2ccc(OCCC[N+](C)(C)CC(=O)NCCCC)c(CC=C)c2)c2oc(-c3ccc(F)cc3Cl)nc2c1.[Br-]`, the MIC in [1] was found to be 8 µg/mL; in data set [2], 8 µg/mL; in [3], 4 µg/mL; in [4], 4 µg/mL; in [5], 4 µg/mL; in [6], 4 µg/mL. Also, the MIC in [7], in [8], in [9], in [10], in data set [11] and in data set [12] was 4 µg/mL each time. In data set [13], this compound showed an MIC greater than 128 µg/mL. In data set [14], this compound yielded an HC50 at 1 h of 219 µg/mL. For the same compound, the selectivity ratio in data set [15] was 27.3.

On to `C=CCc1cc(-c2ccc(OCCC[N+](C)(C)CC(=O)NCCCC)c(CC=C)c2)c2oc(-c3ccccc3F)nc2c1.[Br-]`, for which the MIC was found to be 4 µg/mL in data set [1]; 8 µg/mL in data set [2]; 4 µg/mL in [3]; 4 µg/mL in data set [4]; 4 µg/mL in data set [5]; 4 µg/mL in data set [6]. In addition, the minimum inhibitory concentration (MIC) worked out at 4 µg/mL in data set [7]; 4 µg/mL in data set [8]; 4 µg/mL in data set [9]; 8 µg/mL in data set [10]; 4 µg/mL in data set [11]; 4 µg/mL in [12]. This compound also came in with a minimal inhibitory concentration (MIC) in data set [13] of 128 µg/mL. In data set [14], the HC50 at 1 h turned out to be 110 µg/mL. Further, the selectivity ratio in data set [15] is 27.4.

For the compound `C=CCc1cc(-c2ccc(OCCC[N+](C)(C)CC(=O)NCCCC)c(CC=C)c2)c2oc(-c3ccccc3Br)nc2c1.[Br-]`, the minimum inhibitory concentration (MIC) was determined as 4 µg/mL in [1]; 8 µg/mL in data set [2]; 4 µg/mL in [3]; 4 µg/mL in [4]; 2 µg/mL in data set [5]; 4 µg/mL in [6]. Moreover, the MIC in [7] was 2 µg/mL; in data set [8], 4 µg/mL; in [9] it was 4 µg/mL; in data set [10], 4 µg/mL; in data set [11] it was 4 µg/mL; in [12], 4 µg/mL. In [13], this compound displayed an MIC of 128 µg/mL. In data set [14], this compound gave an HC50 at 1 h greater than 320 µg/mL. Also, the selectivity ratio in data set [15] is greater than 80.

Take `C=CCc1cc(-c2ccc(OCCC[N+](C)(C)CC(=O)NCCCC)c(CC=C)c2)c2oc(-c3ccc(Cl)cc3Cl)nc2c1.[Br-]`: the MIC was determined as 32 µg/mL in data set [1]; 32 µg/mL in data set [2]; 64 µg/mL in [3]; 16 µg/mL in data set [4]; 16 µg/mL in data set [5]; 8 µg/mL in data set [6]. For the same compound, the MIC in [7] was 8 µg/mL; in data set [8], 8 µg/mL; in data set [9], 8 µg/mL; in data set [10], 8 µg/mL; in [11], 16 µg/mL; in data set [12], 8 µg/mL. The compound further came in with a minimum inhibitory concentration (MIC) in data set [13] greater than 128 µg/mL. Besides, the HC50 at 1 h in data set [14] was 85.9 µg/mL. Also, the selectivity ratio in data set [15] is 2.7.

For `C=CCc1cc(-c2ccc(OCCC[N+](C)(C)CC(=O)NCCCC)c(CC=C)c2)c2oc(-c3ccc(Cl)c(Br)c3)nc2c1.[Br-]`, the minimal inhibitory concentration (MIC) was 128 µg/mL in data set [1]; 128 µg/mL in [2]; greater than 128 µg/mL in data set [3]; 128 µg/mL in [4]; 32 µg/mL in data set [5]; 64 µg/mL in [6]. The MIC in data set [7] is 64 µg/mL; in data set [8] it was 128 µg/mL; in data set [9] it was 128 µg/mL; in data set [10] it was 128 µg/mL; in data set [11] it was 128 µg/mL; in [12] it was 128 µg/mL. Moreover, the minimum inhibitory concentration (MIC) in [13] is greater than 128 µg/mL. Besides, the HC50 at 1 h in data set [14] is greater than 320 µg/mL. In addition, the selectivity ratio in [15] was greater than 2.5.

With `C=CCc1cc(-c2ccc(OCCC[N+](C)(C)CC(=O)NCCCC)c(CC=C)c2)c2oc(-c3cccc(OC)c3)nc2c1.[Br-]`, the minimum inhibitory concentration (MIC) is 32 µg/mL in [1]; 8 µg/mL in [2]; 8 µg/mL in [3]; 16 µg/mL in data set [4]; 16 µg/mL in data set [5]; 8 µg/mL in data set [6]. Also, the MIC worked out at 8 µg/mL in [7]; 8 µg/mL in data set [8]; 8 µg/mL in [9]; 8 µg/mL in data set [10]; 16 µg/mL in [11]; 8 µg/mL in data set [12]. This compound returned an MIC in data set [13] greater than 128 µg/mL. The HC50 at 1 h in [14] came to 307 µg/mL. For the same compound, the selectivity ratio in data set [15] turned out to be 9.6.

For `C=CCc1cc(-c2ccc(OCCC[N+](C)(C)CC(=O)NCCCC)c(CC=C)c2)c2oc(-c3ccc(F)c(Cl)c3)nc2c1.[Br-]`, the minimal inhibitory concentration (MIC) turned out to be 64 µg/mL in data set [1]; 16 µg/mL in data set [2]; 8 µg/mL in [3]; 8 µg/mL in data set [4]; 8 µg/mL in data set [5]; 4 µg/mL in data set [6]. Besides, the MIC in [7] came out at 8 µg/mL; in data set [8], 32 µg/mL; in data set [9] it was 8 µg/mL; in [10], 8 µg/mL; in [11], 16 µg/mL; in data set [12] it was 8 µg/mL. The compound also showed an MIC in [13] greater than 128 µg/mL. The compound also came in with an HC50 at 1 h in [14] greater than 320 µg/mL. Also, in data set [15], the selectivity ratio was greater than 5.
